PubChem BioAssay AID1259407 (Chemical Carcinogenesis Research Information System (CCRIS), 2018)
Calls of active or inactive are those of the source. How the calls were made is not given here.

Tested on: CCRIS mutagenicity, Ames/micronucleus/aberration tests
Assay: CCRIS mutagenicity studies
From the text: The CCRIS database contains chemical records with carcinogenicity, mutagenicity, tumor promotion, and tumor inhibition test results. It was developed by the National Cancer Institute (NCI). Data are derived from studies cited in primary journals, current awareness tools, NCI reports, and other sources. Test results have been reviewed by experts in carcinogenesis and mutagenesis.
CCRIS provides historical information from the years 1985 - 2011. It is no longer updated.
This is an archive assay for CCRIS mutagenicity studies.

Measured: mutagenic call

CCCCCCCCC1OC1CCCCCCCC(=O)OCC(CC)CCCC (stereo not drawn)
inactive: Test System: AMES SALMONELLA TYPHIMURIUM, Strain/Indicator: TA97, Metabolic Activation: HAMSTER, LIVER, S-9, AROCLOR 1254 (10% & 30%), Method: PREINCUBATION inactive; negative | Test System: AMES SALMONELLA TYPHIMURIUM, Strain/Indicator: TA97, Metabolic Activation: NONE, Method: PREINCUBATION inactive; negative | Test System: AMES SALMONELLA TYPHIMURIUM, Strain/Indicator: TA97, Metabolic Activation: RAT, LIVER, S-9, AROCLOR 1254 (10% & 30%), Method: PREINCUBATION inactive; negative | Test System: AMES SALMONELLA TYPHIMURIUM, Strain/Indicator: TA98, Metabolic Activation: HAMSTER, LIVER, S-9, AROCLOR 1254 (10% & 30%), Method: PREINCUBATION inactive; negative | Test System: AMES SALMONELLA TYPHIMURIUM, Strain/Indicator: TA98, Metabolic Activation: NONE, Method: PREINCUBATION inactive; negative | Test System: AMES SALMONELLA TYPHIMURIUM, Strain/Indicator: TA98, Metabolic Activation: RAT, LIVER, S-9, AROCLOR 1254 (10% & 30%), Method: PREINCUBATION inactive; negative | Test System: AMES SALMONELLA TYPHIMURIUM, Strain/Indicator: TA100, Metabolic Activation: HAMSTER, LIVER, S-9, AROCLOR 1254 (10% & 30%), Method: PREINCUBATION inactive; negative | Test System: AMES SALMONELLA TYPHIMURIUM, Strain/Indicator: TA100, Metabolic Activation: NONE, Method: PREINCUBATION inactive; negative | Test System: AMES SALMONELLA TYPHIMURIUM, Strain/Indicator: TA100, Metabolic Activation: RAT, LIVER, S-9, AROCLOR 1254 (10% & 30%), Method: PREINCUBATION inactive; negative | Test System: AMES SALMONELLA TYPHIMURIUM, Strain/Indicator: TA1535, Metabolic Activation: HAMSTER, LIVER, S-9, AROCLOR 1254 (10% & 30%), Method: PREINCUBATION inactive; negative | Test System: AMES SALMONELLA TYPHIMURIUM, Strain/Indicator: TA1535, Metabolic Activation: NONE, Method: PREINCUBATION inactive; negative | Test System: AMES SALMONELLA TYPHIMURIUM, Strain/Indicator: TA1535, Metabolic Activation: RAT, LIVER, S-9, AROCLOR 1254 (10% & 30%), Method: PREINCUBATION inactive; negative

O=c1[nH]cc(CO)c(=O)[nH]1
inactive: Test System: CHINESE HAMSTER V-79, Strain/Indicator: V-79 (HPRT)/6-THIOGUANINE, Metabolic Activation: NONE, Method: STANDARD PLATE inactive; negative
